Assay results from patent US12655116B2, “Substituted isophthalic acid diamides” (Bayer Aktiengesellschaft, priority 2020, dated 2026).

Experiments:
LOLRI = assay: Pre-emergence herbicidal action against LOLRI; format: in vivo, Lolium rigidum; conditions: Lolium rigidum, 504 h, 80 g/ha
Procedure, shortened: (§1)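 Greenhouse pots of sandy loam held seeds covered with soil, onto which the compound was applied before emergence. An aqueous suspension or emulsion of WP or EC was used at 600 to 800 l/ha with 0.2% wetting agent. Percent damage was judged visually at 3 weeks.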

ALOMY [1] = assay: Post-emergence herbicidal action against ALOMY; format: in vivo, Alopecurus myosuroides; conditions: Alopecurus myosuroides, 504 h, visual assessment about 3 weeks after treatment vs untreated controls; for pest or weed control at 20 g/ha: dosage 20 g/ha
Procedure, shortened: (§2)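 A WP or EC formulation diluted in water with 0.2% wetting agent was sprayed at 600 to 800 l/ha onto one-leaf-stage plants grown in sandy loam. About 3 weeks later, action was rated visually in percent, 100% being dead plants.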

AMARE [2] = assay: Post-emergence herbicidal action against AMARE; format: in vivo, Amaranthus retroflexus; conditions: Amaranthus retroflexus, 504 h, 20 g/ha, visual assessment about 3 weeks after treatment, 100% = plants have died, 0% = like control plants
Procedure, shortened: as §2

VERPE [3] = assay: Post-emergence herbicidal action against VERPE; format: in vivo, Veronica persica; conditions: Veronica persica, 504 h, 20 g/ha
Procedure, shortened: as §2

AVEFA [4] = assay: Pre-emergence herbicidal action against AVEFA; format: in vivo, Avena fatua; conditions: Avena fatua, 504 h, pre-emergence
Procedure, shortened: as §1

AVEFA [5] = assay: Post-emergence herbicidal action against AVEFA; format: in vivo, Avena fatua; conditions: Avena fatua, 504 h, 20 g/ha, visual assessment about 3 weeks after treatment, 100% = plants have died, 0% = like control plants
Procedure, shortened: as §2

VIOTR = assay: Pre-emergence herbicidal action against VIOTR; format: in vivo, Viola tricolor; conditions: Viola tricolor, 504 h; for pest or weed control at 80 g/ha: dosage 80 g/ha
Procedure, shortened: as §1

ABUTH [6] = assay: Post-emergence herbicidal action against ABUTH; format: in vivo, Abutilon theophrasti; conditions: Abutilon theophrasti, 504 h, visual assessment about 3 weeks after treatment vs untreated controls; for pest or weed control at 20 g/ha: dosage 20 g/ha
Procedure, shortened: as §2

SETVI [7] = assay: Post-emergence herbicidal action against SETVI; format: in vivo, Setaria viridis; conditions: Setaria viridis, 504 h; for pest or weed control at 5 g/ha: dosage 5 g/ha; for pest or weed control at 20 g/ha: dosage 20 g/ha
Procedure, shortened: as §2

ABUTH [8] = assay: Pre-emergence herbicidal action against ABUTH; format: in vivo, Abutilon theophrasti; conditions: Abutilon theophrasti, 504 h; for pest or weed control at 80 g/ha: scored visually after 3 weeks vs untreated controls (100% = plants have died, 0% = like control plants); for pest or weed control at 20 g/ha: dosage 20 g/ha, scored visually after 3 weeks vs untreated controls, 100% = plants have died, 0% = like control plants, read-out: Pre-emergence action against ABUTH (herbicidal activity in percent)
Procedure, shortened: as §1

AMARE [9] = assay: Pre-emergence herbicidal action against AMARE; format: in vivo, Amaranthus retroflexus; conditions: Amaranthus retroflexus, 504 h, scored visually after 3 weeks vs untreated controls, 100% = plants have died, 0% = like control plants
Procedure, shortened: as §1

MATIN [10] = assay: Pre-emergence herbicidal action against MATIN; format: in vivo, Matricaria inodora; conditions: Tripleurospermum inodorum, 504 h; for pest or weed control at 20 g/ha: dosage 20 g/ha; for pest or weed control at 80 g/ha: dosage 80 g/ha
Procedure, shortened: as §1

ALOMY [11] = assay: Pre-emergence herbicidal action against ALOMY; format: in vivo, Alopecurus myosuroides; conditions: Alopecurus myosuroides, 504 h, pre-emergence; for pest or weed control at 80 g/ha: scored visually after 3 weeks vs untreated controls (100% = plants have died, 0% = like control plants); for pest or weed control at 20 g/ha: scored visually after 3 weeks, 100% = plants have died, 0% = like control plants
Procedure, shortened: as §1

SETVI [12] = assay: Pre-emergence herbicidal action against SETVI; format: in vivo, Setaria viridis; conditions: Setaria viridis, 504 h; for pest or weed control at 80 g/ha: dosage 80 g/ha
Procedure, shortened: as §1

ECHCG [13] = assay: Pre-emergence herbicidal action against ECHCG; format: in vivo, Echinochloa crus-galli; conditions: Echinochloa crus-galli, 504 h, 80 g/ha
Procedure, shortened: as §1

VERPE [14] = assay: Pre-emergence herbicidal action against VERPE; format: in vivo, Veronica persica; conditions: Veronica persica, 504 h; for pest or weed control at 20 g/ha: dosage 20 g/ha; for pest or weed control at 80 g/ha: dosage 80 g/ha
Procedure, shortened: as §1

PHBPU [15] = assay: Post-emergence herbicidal action against PHBPU; format: in vivo, Pharbitis purpurea; conditions: Ipomoea purpurea, 504 h, dosage 20 g/ha
Procedure, shortened: as §2

ECHCG [16] = assay: Post-emergence herbicidal action against ECHCG; format: in vivo, Echinochloa crus-galli; conditions: Echinochloa crus-galli, 504 h
Procedure, shortened: as §2

DIGSA = assay: Pre-emergence herbicidal action against DIGSA; format: in vivo, Digitaria sanguinalis; conditions: Digitaria sanguinalis, 504 h
Procedure, shortened: as §1

MATIN [17] = assay: Post-emergence herbicidal action against MATIN; format: in vivo, Matricaria inodora; conditions: Tripleurospermum inodorum, 504 h
Procedure, shortened: as §2

PHBPU [18] = assay: Pre-emergence herbicidal action against PHBPU; format: in vivo, Pharbitis purpurea; conditions: Ipomoea purpurea, 504 h
Procedure, shortened: as §1

SMILES	pest or weed control at 80 g/ha (LOLRI) [%]	pest or weed control at 20 g/ha (ALOMY [1]) [%]	pest or weed control at 20 g/ha (AMARE [2]) [%]	pest or weed control at 80 g/ha (AVEFA [4]) [%]	pest or weed control at 20 g/ha (AVEFA [5]) [%]	pest or weed control at 80 g/ha (VIOTR) [%]	pest or weed control at 20 g/ha (ABUTH [6]) [%]	pest or weed control at 5 g/ha (SETVI [7]) [%]	pest or weed control at 20 g/ha (SETVI [7]) [%]	pest or weed control at 80 g/ha (ABUTH [8]) [%]	pest or weed control at 20 g/ha (ABUTH [8]) [%]	pest or weed control at 20 g/ha (AMARE [9]) [%]	pest or weed control at 80 g/ha (AMARE [9]) [%]	pest or weed control at 20 g/ha (MATIN [10]) [%]	pest or weed control at 80 g/ha (MATIN [10]) [%]	pest or weed control at 80 g/ha (ALOMY [11]) [%]	pest or weed control at 20 g/ha (ALOMY [11]) [%]	pest or weed control at 80 g/ha (SETVI [12]) [%]	pest or weed control at 80 g/ha (ECHCG [13]) [%]	pest or weed control at 20 g/ha (VERPE [14]) [%]	other results
Cn1nnnc1NC(=O)c1ccc(Br)c(C(=O)NC2CC2)c1Br [Example 1-344]	90	100	100	90	80	100	90	80	90	100	90	100	100	90	100	100	90	100	90	80	pest or weed control at 20 g/ha (VERPE [3]): 90%; pest or weed control at 80 g/ha (VERPE [14]): 90%
CCn1nnnc1NC(=O)c1ccc(C(F)(F)F)c(C(=O)NC(C)C)c1C [Example 2-33]	80	100	100	90	100	100	90	80	100	100	100	100	100	100	100	100	90	100	100	80	pest or weed control at 5 g/ha (ALOMY [1]; dosage 5 g/ha): 90%; pest or weed control at 20 g/ha (PHBPU [15]): 90%; pest or weed control at 20 g/ha (AVEFA [4]; 20 g/ha, scored visually after 3 weeks, 100% = plants have died, 0% = like control plants): 80%; pest or weed control at 5 g/ha (ECHCG [16]; dosage 5 g/ha): 90%; pest or weed control at 20 g/ha (ECHCG [16]; dosage 20 g/ha): 100%; pest or weed control at 20 g/ha (DIGSA; dosage 20 g/ha): 100%; pest or weed control at 80 g/ha (DIGSA; dosage 80 g/ha): 100%; pest or weed control at 20 g/ha (VIOTR; dosage 20 g/ha): 100%; pest or weed control at 5 g/ha (MATIN [17]; dosage 5 g/ha): 90%; pest or weed control at 20 g/ha (MATIN [17]; dosage 20 g/ha): 90%; pest or weed control at 5 g/ha (ABUTH [6]; dosage 5 g/ha): 90%; pest or weed control at 20 g/ha (PHBPU [18]; dosage 20 g/ha): 80%; pest or weed control at 80 g/ha (PHBPU [18]; dosage 80 g/ha): 80%; pest or weed control at 20 g/ha (SETVI [12]; dosage 20 g/ha): 80%; pest or weed control at 80 g/ha (VERPE [14]): 90%
